Reference: US20130115256A1, “METHODS FOR TREATING OR PREVENTING VASCULAR GRAFT FAILURE” (priority 2010, published 2013)

Columns and labels:
[1] = target: T1, PRAK (Homo sapiens, UniProt Q8IW41); assay: PRAK radiometric kinase assay; format: biochemical; settings: MMI-0100 100 μM; remaining kinase activity
T1 construct: purchased Millipore (KinaseProfiler service)
T1 sequence (Q8IW41 1-473): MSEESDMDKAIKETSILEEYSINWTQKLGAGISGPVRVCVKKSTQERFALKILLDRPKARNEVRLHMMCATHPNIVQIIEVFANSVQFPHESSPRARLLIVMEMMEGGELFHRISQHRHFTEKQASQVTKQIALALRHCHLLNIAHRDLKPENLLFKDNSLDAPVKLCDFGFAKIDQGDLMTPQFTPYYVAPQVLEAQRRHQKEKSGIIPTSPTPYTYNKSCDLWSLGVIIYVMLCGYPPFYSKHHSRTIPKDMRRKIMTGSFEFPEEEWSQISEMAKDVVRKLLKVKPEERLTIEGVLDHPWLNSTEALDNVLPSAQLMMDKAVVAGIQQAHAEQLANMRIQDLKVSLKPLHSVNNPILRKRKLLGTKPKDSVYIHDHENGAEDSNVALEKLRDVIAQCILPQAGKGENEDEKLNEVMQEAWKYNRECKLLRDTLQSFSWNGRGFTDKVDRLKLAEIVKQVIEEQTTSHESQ
Description: A commercial radiometric assay service was used to test the specificity and potency of MMI-0100 ([…]; SEQ ID NO: 1) by measuring its half maximal inhibitory concentrations (IC50). This quantitative assay measures how much MK2 inhibitor (MMI-0100; […] (SEQ ID NO: 1)) is needed to inhibit 50% of a given biological process or component of a process (i.e., an enzyme, cell, or cell receptor). Specifically, in these assays, a positively charged substrate is phosphorylated with a radiolabeled phosphate group from an ATP if the kinase is not inhibited by an inhibitor peptide. The positively charged substrate then is attracted to a negatively charged filter membrane, quantified with a scintillation counter, and compared to a 100% activity control. ATP concentrations within 15 μM of the apparent Km for ATP were chosen since an ATP concentration near the Km may allow for the kinases to have the same relative amount of phosphorylation activity. The individual conditions for each radiometric assay are as follows. […]
IC50 values for inhibitor peptides were determined using Millipore's IC50 Profiler Express service. […]

[2] = tested on: human saphenous vein (HSV); assay: Sodium nitroprusside-induced relaxation of human saphenous vein in muscle bath; settings: for relaxation (percent relaxation): 100 μM pretreatment, phenylephrine 10^-6 M
Method: In preparation for testing vein segment functional viability, HSV rings were weighed and their lengths recorded. To focus on smooth muscle responses, the endothelium was mechanically denuded by rolling the luminal surface of each ring at the tip of a fine vascular forceps before suspension in a muscle bath containing a bicarbonate buffer (120 mM NaCl, 4.7 mM KCl, 1.0 mM MgSO4, 1.0 mM NaH2PO4, 10 mM glucose, 1.5 mM CaCl2, and 25 mM […], pH 7.4) equilibrated with 95% O2 and 5% CO2 at 37° C. The rings were stretched and the length progressively adjusted until maximal tension was obtained. Normalized reactivity was obtained by determining the passive length-tension relationship for each vessel segment. Rings were maintained at a resting tension of 1 g, which produces maximal responses to contractile agonists as previously determined, and equilibrated for 2 hours in buffer. Force measurements were obtained using a Radnoti Glass Technology (Monrovia, Calif.) force transducer (159901A) interfaced with a Powerlab data acquisition system and Chart software (AD Instruments, Colorado Springs, Colo.).
HSV rings were first contracted with 110 mM KCl (with equimolar replacement of NaCl in bicarbonate buffer) and the generated force was measured. 110 mM KCl causes membrane depolarization, leading to contraction of vessels containing functionally viable smooth muscle. After multiple KCl challenges, rings were washed and allowed to equilibrate in bicarbonate solution for 30 min, and then contracted with phenylephrine (PE, 10^−7-10^−6 M). Rings were relaxed with a cumulative log dose of sodium nitroprusside (SNP), a nitric oxide donor, and the force generated was recorded. All rings were again washed and equilibrated in buffer for 15 minutes. Rings were then incubated with either buffer alone or buffer plus 100 μM of MMI-0100 ([…] (SEQ ID NO: 1)) for 2 hours, followed by treatment with the same doses of PE and SNP, and the forces generated again recorded. Measured force was normalized for ring weight and length and percent relaxation was calculated; force generated with 10^−6M of PE was set as 0% relaxation.
The enhancing effect of MMI-0100 ([…]; SEQ ID NO: 1) on smooth muscle relaxation was examined by pre-treating harvested human saphenous vein (HSV) with MMI-0100 ([…]; SEQ ID NO: 1) before SNP treatment. Segments of human saphenous vein (HSV) were equilibrated in a muscle bath and pretreated with a control solution (0.01M phosphate-buffered solution, PBS) or MMI-0100 ([…] (SEQ ID NO: 1); 30 μM, 2 hrs), contracted with norepinephrine. and relaxed with increasing doses of sodium nitroprusside (SNP, 0-1 μM). Percentage of relaxation at 0, 0.01, 0.1, and 1.0 μM of SNP was measured. […]

In the case of YARAAARQARAKALARQLGVAA [MMI-0100], the “Percent Activity, PRAK” value [1] is reported as 100%, the “increase in relaxation compared to HSV pretreated with control solution” value ([2]; 30 μM, 2 hrs pretreatment, norepinephrine contraction, SNP 0-1 μM, n=3) is reported as “about 40%” and the “relaxation (percent relaxation)” value ([2]; 10^-7 M SNP (untreated control 72.768±6.99)) is reported as 92.54±3.09. For the same sequence, the “relaxation (percent relaxation)” value ([2]; 10^-8 M SNP (untreated control 10.825±5.62)) was 25.622±6.38.
